pIC50: −log10 of the molar value.
Key:
[1] = target: T1, Human KIF18A (amino acid sequence 1-417) (Homo sapiens, UniProt Q8NI77); experiment: Enzymatic activity test (ADP-Glo, microtubule-stimulated KIF18A ATPase); format: biochemical; conditions: 60 μg/mL microtubules, 25 μM ATP, 2.5 nM KIF18A protein, 120 min at ambient temperature, read-out: KIF18A_nM
T1 construct: purchased Viva Biotech (Shanghai) Ltd
T1 sequence (Q8NI77 1-417): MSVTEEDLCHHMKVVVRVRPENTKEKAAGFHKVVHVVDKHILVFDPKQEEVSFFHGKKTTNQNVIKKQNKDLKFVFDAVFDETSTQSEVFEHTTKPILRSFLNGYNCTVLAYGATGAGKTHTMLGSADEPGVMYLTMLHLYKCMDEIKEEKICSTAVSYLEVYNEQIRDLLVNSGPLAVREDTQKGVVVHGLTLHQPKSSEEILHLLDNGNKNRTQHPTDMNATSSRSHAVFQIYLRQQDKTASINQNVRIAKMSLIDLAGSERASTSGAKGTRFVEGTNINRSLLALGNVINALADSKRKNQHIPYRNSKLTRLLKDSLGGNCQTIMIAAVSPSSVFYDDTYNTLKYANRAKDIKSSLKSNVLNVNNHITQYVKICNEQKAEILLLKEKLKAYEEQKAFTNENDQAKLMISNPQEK
Procedure, shortened: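 Microtubule-stimulated ATPase of KIF18A(1-417) run with 60 μg/mL microtubules, 25 μM ATP and 2.5 nM enzyme, compounds at 0-10 μM final, 120 min at ambient temperature. ADP formed was read by ADP-Glo chemiluminescence after two 30-min reagent incubations.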

OVCAR3 cells = experiment: Cell proliferation activity test in OVCAR3 cells (CyQUANT Direct); format: cell-based; conditions: Homo sapiens, OVCAR-3, 72 h, 3 days incubation, CyQUANT fluorescence detection, read-out: OVCAR-3_IC50_nM
Procedure, shortened: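 Log-phase cells in RPMI-1640 with 10% FBS were seeded overnight, then exposed to compound at final 0–10 μM (0.2% DMSO) for 3 days at 37 °C, 5% CO2. Proliferation was read by CyQUANT Direct fluorescence after 60 min at 37 °C.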

HT29 cells = experiment: CyQuant cell proliferation activity test in HT29 cells; format: cell-based; conditions: Homo sapiens, HT-29, 72 h, 2000 cells per well, 3 days incubation, IC50 by XLFIT, read-out: HT29_IC50_nM
Procedure, shortened: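 Cells seeded at 2000/well in RPMI-1640 with 10% FBS, overnight, then exposed 3 days at 37 °C to compound from 3000 nM top, 3-fold, 9 points, 0.2% DMSO. CyQuant read after 1 h; IC50 from curve fit.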

Row | Structure (SMILES) | pIC50 [1] | pIC50 (OVCAR3 cells) | pIC50 (HT29 cells)
1 | O=C(Nc1cc2cccnc2c(N2CCC(F)(F)CC2)c1F)c1ccc(NS(=O)(=O)CCO)cc1N1CCC2(CC1)CC2 [Example 71, N-(8-(4,4-difluoropiperidin-1-yl)-7-fluoroquinolin-6-yl)-4-((2-hydroxyethyl)sulfonamido)-2-(6-azaspiro[2.5]octan-6-yl]benzamide] | 6.89 | 7.74 | 7.77
2 | O=C(Nc1nc2c(c(N3CCC(F)(F)CC3)n1)CNC2)c1ccc(NS(=O)(=O)CCO)cc1N1CCC2(CC1)CC2 [Example 7, N-(4-(4,4-difluoropiperidin-1-yl)-6,7-dihydro-5H-pyrrolo[3,4-d]pyrimidin-2-yl)-4-(2-hydroxyethylsulfonamido)-2-(6-azaspiro[2.5]octan-6-yl)benzamide] | 7.00 | < 5.00 | < 5.00
3 | O=C(Nc1ccc(NS(=O)(=O)CCO)cc1N1CCC2(CC1)CC2)c1cc(N2CCC(F)(F)CC2)c2ncccc2c1 [Example 100, N-(2-{6-azaspiro[2.5]octan-6-yl}-4-(2-hydroxyethanesulfonamido)phenyl)-8-(4,4-difluoropiperidin-1-yl)quinoline-6-carboxamide] | 7.62 | 7.96 | 7.92
4 | O=C(Nc1cc2cc(O)nnc2c(N2CCC(F)(F)CC2)n1)c1ccc(NS(=O)(=O)CCO)cc1N1CCC2(CC1)CC2 [Example 61, 2-{6-Azaspiro[2.5]octan-6-yl}-N-[8-(4,4-difluoropiperidin-1-yl)-3-hydroxypyrido[3,4-c]pyridazin-6-yl]-4-(2-hydroxyethanesulfonamido)benzamide] | 7.82 | 7.13 | 6.95
5 | O=C(Nc1cn2ccnc2c(N2CCC(F)(F)CC2)n1)c1ccc(NS(=O)(=O)CCO)cc1N1CCC2(CC1)CC2 [Example 13, N-(8-(4,4-difluoropiperidin-1-yl)imidazolo[1,2-a]pyrazin-6-yl)-4-((2-hydroxyethyl)sulfonamide)-2-(6-azaspiro[2.5]octan-6-yl)benzamide] | 7.57 | 8.05 | 7.89
6 | O=C(Nc1cc2ccc(O)nc2c(N2CCC(F)(F)CC2)c1F)c1ccc(NS(=O)(=O)CCO)cc1N1CCC2(CC1)CC2 [Example 76, N-(8-(4,4-difluoropiperidin-1-yl)-7-fluoro-2-hydroxyquinolin-6-yl)-4-((2-hydroxyethyl)sulfonamido)-2-(6-azaspiro[2.5]oct-6-yl)benzamide] | 7.34 | 7.47 | 7.51
7 | [2H]c1c(NC(=O)c2ccc(NS(=O)(=O)CCO)cc2N2CCC3(CC2)CC3)cc2cccnc2c1N1CCC(F)(F)CC1 [Example 70, N-(8-(4,4-difluoropiperidin-1-yl)quinolin-6-yl-7-d)-4-((2-hydroxyethyl)sulphonamino)-2-(6-azaspiro[2.5]octan-6-yl)benzamide] | 7.37 | 8.05 | 7.80
8 | O=C(Nc1cc2cccnc2c(N2CCC(F)(F)CC2)c1C(F)(F)F)c1ccc(NS(=O)(=O)CCO)cc1N1CCC2(CC1)CC2 [Example 72, N-(8-(4,4-difluoropiperidin-1-yl)-7-(trifluoromethyl)quinolin-6-yl)-4-((2-hydroxyethyl)sulfonamido)-2-(6-azaspiro[2.5]octan-6-yl)] | < 5.52 | < 5.52 | < 5.52
9 | C[C@H](CO)S(=O)(=O)Nc1ccc(C(=O)Nc2cc3cccnc3c(N3CCC(F)(F)CC3)c2F)c(N2CCC3(CC2)CC3)c1 [Example 98, 2-{6-azaspiro[2.5]octan-6-yl}-N-[8-(4,4-difluoropiperidin-1-yl)-7-fluoroquinolin-6-yl]-4-[(2R)-1-hydroxypropane-2-sulfonamido]benzamide] | 6.78 | 7.77 | 7.68
10 | COc1ccc2cc(NC(=O)c3ccc(NS(=O)(=O)CCO)cc3N3CCC4(CC3)CC4)cc(N3CCC(F)(F)CC3)c2n1 [Example 65, N-(8-(4,4-difluoropiperidin-1-yl)-2-methoxyquinolin-6-yl)-4-(2-hydroxyethylsulfonamide)-2-(6-azaspiro[2.5]octan-6-yl)benzamide] | 6.63 | 6.38 | 6.43
11 | O=C(Nc1cc(N2CCC(F)(F)CC2)c2nccn2c1)c1ccc(NS(=O)(=O)CCO)cc1N1CCC2(CC1)CC2 [Example 14, N-(8-(4,4-difluoropiperidin-1-yl)imidazo[1,2-a]pyridin-6-yl)-4-((2-hydroxyethyl)sulfonamido)-2-(6-azaspiro[2.5]oct-6-yl)benzamide] | 7.49 | 8.05 | 7.77
12 | O=C(Nc1cn2cccc2c(N2CCC(F)(F)CC2)n1)c1ccc(NS(=O)(=O)CCO)cc1N1CCC2(CC1)CC2 [Example 11, N-(1-(4,4-difluoropiperidin-1-yl)pyrrolo[1,2-a]pyrazin-3-yl)-4-(2-hydroxyethylsulfonamido)-2-(6-azaspiro[2.5]octan-6-yl)benzamide] | 6.72 | 7.55 | 7.55
13 | O=C(Nc1cc2cccnc2c(N2CCC(F)(F)CC2)n1)c1cc(F)c(NS(=O)(=O)CCO)cc1N1CCC2(CC1)CC2 [Example 45, N-(8-(4,4-difluoropiperidin-1-yl)-1,7-naphthyridin-6-yl)-5-fluoro-4-((2-hydroxyethyl)sulfonamide)-2-(6-azaspiro[2.5]octan-6-yl)benzamide] | 7.55 | 7.74 | 7.51
14 | CCOC(=O)c1cnc2c(N3CCC(F)(F)CC3)cc(NC(=O)c3ccc(NS(=O)(=O)CCO)cc3N3CCC4(CC3)CC4)cc2c1 [Example 86, Ethyl 6-(2-{6-azaspiro[2.5]octan-6-yl}-4-(2-hydroxyethanesulfonamido)benzoylamino)-8-(4,4-difluoropiperidin-1-yl)quinoline-3-carboxylate] | 6.65 | 7.47 | 7.25
15 | O=C(Nc1cc(N2CCC(F)(F)CC2)c2ncccc2c1)c1ccc(NS(=O)(=O)CCO)cc1N1CCC2(CC1)CC2 [Example 63] | 7.46 | 7.96 | 7.82
16 | O=C(Nc1cc(N2CCC(F)(F)CC2)c2nnccc2c1)c1ccc(NS(=O)(=O)CCO)cc1N1CCC2(CC1)CC2 [Example 82, 2-{6-azaspiro[2.5]octan-6-yl}-N-[8-(4,4-difluoropiperidin-1-yl)misonin-6-yl]-4-(2-hydroxyethanesulfonamido)benzamide] | 7.48 | 7.89 | 7.85
17 | Cc1cnc2c(N3CCC(F)(F)CC3)c(F)c(NC(=O)c3ccc(NS(=O)(=O)CCO)cc3N3CCC4(CC3)CC4)cc2c1 [Example 90, 2-{6-azaspiro[2.5]octan-6-yl}-N-[8-(4,4-difluoropiperidin-1-yl)-7-fluoro-3-methylquinolin-6-yl]-4-(2-hydroxyethanesulfonamido)benzamide] | 6.47 | 7.02 | 6.97
18 | Nc1ccc2cc(NC(=O)c3ccc(NS(=O)(=O)CCO)cc3N3CCC4(CC3)CC4)cc(N3CCC(F)(F)CC3)c2n1 [Example 67] | 7.28 | 8.15 | 7.89

From US20260159500A1, “KINESIN KIF18A INHIBITOR AND USE THEREOF” (SHANGHAI APEIRON THERAPEUTICS COMPANY LIMITED, priority 2022, published 2026)
